From patent US20260007758A1, “SO[…]-2 RECEPTOR (SST2R) NON-PEPTIDE DRUG CONJUGATES AND USES THEREOF” (Crinetics Pharmaceuticals, Inc., priority 2024, published 2026)

Tests used:
Type in all cases: cell-based
[1] = target: T1, SST2 (Homo sapiens, UniProt P30874); test: PathHunter CHO-K1 SST2 Internalization Assay; conditions: PathHunter CHO-K1 SST2 cells; 90 min at 37 C; luminescence; read-out: Internalization EC50
T1 construct: host or cells: PathHunter CHO-K1 SST2 cells
In short: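 CHO-K1 cells expressing human SST2, 2500 cells/well, grown 48 h, then exposed 90 min at 37 C to 11-point 1:3 NDC dilutions (final top 10 uM). Beta-Glo luminescence after 60 min at room temperature; four-parameter IC50, duplicate mean, background-corrected.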

[2] = tested on: NCI-H524 human small cell lung cancer cells; test: H524 assay: inhibition of cell proliferation (CellTiter Glo); conditions: 2 h treatment, washout, additional 70 h incubation
In short: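 NCI-H524 cells were exposed for 2 h to NDC in an 11-point two-fold series starting at 1 uM. The drug was then washed out and cells grew a further 70 h. CellTiter Glo luminescence gave % inhibition versus untreated control, and IC50 came from a four-parameter nonlinear regression.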

[3] = target: T2, human somatostatin receptor subtype 2 (Homo sapiens, UniProt P30874); test: Functional assay for SSTR2 agonists (HTRF cAMP); conditions: CHO-K1 cells stably expressing human SST2; NKH477-stimulated cAMP; 20 min at 37 C; read-out: hSST2 cAMP Avg EC50
T2 construct: expressed in transfected cells
T2 sequence (P30874 whole entry): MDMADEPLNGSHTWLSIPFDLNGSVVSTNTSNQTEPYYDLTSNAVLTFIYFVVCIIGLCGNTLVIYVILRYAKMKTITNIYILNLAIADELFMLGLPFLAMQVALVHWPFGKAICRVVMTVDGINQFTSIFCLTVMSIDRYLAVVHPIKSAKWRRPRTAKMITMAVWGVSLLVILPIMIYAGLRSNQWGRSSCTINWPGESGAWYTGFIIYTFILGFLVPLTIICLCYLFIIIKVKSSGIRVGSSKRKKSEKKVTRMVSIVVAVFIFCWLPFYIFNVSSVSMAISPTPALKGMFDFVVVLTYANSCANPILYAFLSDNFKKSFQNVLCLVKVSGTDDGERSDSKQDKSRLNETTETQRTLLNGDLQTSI
In short: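 CHO-K1 cells stably expressing human SSTR2 treated with compound (typically 0-10,000 nM final) for 20 min at 37 °C. Lysate cAMP measured by HTRF (665/620 nm ratio), converted via standard curve; EC50 from cAMP vs concentration.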

T1 sequence (P30874 whole entry): as above

CC[C@H](C)[C@@H]([C@@H](CC(=O)N1CCC[C@H]1[C@H](OC)[C@@H](C)C(=O)N[C@H](C)[C@@H](O)c1ccccc1)OC)N(C)C(=O)[C@@H](NC(=O)[C@H](C(C)C)N(C)C(=O)OCc1ccc(NC(=O)[C@H](CCCNC(N)=O)NC(=O)[C@@H](NC(=O)CCOCCC(=O)NCCNc2ncc(-c3cc(C)cc(F)c3)c(N3CCC(N)CC3)c2-c2nc3ccc(Cl)cc3[nH]2)C(C)C)cc1C(=O)NOC)C(C)C [Compound 87]
EC50 [1]: 4.6 nM
EC50 [2]: 600 nM
EC50 [3]: 0.1 nM

CC[C@H](C)[C@@H]([C@@H](CC(=O)N1CCC[C@H]1[C@H](OC)[C@@H](C)C(=O)N[C@H](C)[C@@H](O)c1ccccc1)OC)N(C)C(=O)[C@@H](NC(=O)[C@H](C(C)C)N(C)C(=O)OCc1ccc(NC(=O)[C@H](CCCNC(N)=O)NC(=O)[C@@H](NC(=O)CN(C)C(=O)CCOCCC(=O)NCCNc2ncc(-c3cc(C)cc(F)c3)c(N3CCC(N)CC3)c2-c2nc3ccc(Cl)cc3[nH]2)C(C)C)c(O[C@@H]2O[C@H](C(=O)O)[C@@H](O)[C@H](O)[C@H]2O)c1)C(C)C [Compound 118]
EC50 [1]: 9.3 nM
EC50 [2]: 22 nM
EC50 [3]: 0.24 nM

CC[C@H](C)[C@@H]([C@@H](CC(=O)N1CCC[C@H]1[C@H](OC)[C@@H](C)C(=O)N[C@H](C)[C@@H](O)c1ccccc1)OC)N(C)C(=O)[C@@H](NC(=O)[C@H](C(C)C)N(C)C(=O)OCc1ccc(NC(=O)[C@H](CCCNC(N)=O)NC(=O)[C@@H](NC(=O)CCOCCC(=O)N(C)CC(=O)NCCNc2ncc(-c3cc(C)cc(F)c3)c(N3CCC(N)CC3)c2-c2nc3ccc(Cl)cc3[nH]2)C(C)C)c(OCC(N)=O)c1)C(C)C [Compound 21]
EC50 [1]: 7.6 nM
EC50 [2]: 13 nM
EC50 [3]: 0.096 nM

CC[C@H](C)[C@@H]([C@@H](CC(=O)N1CCC[C@H]1[C@H](OC)[C@@H](C)C(=O)N[C@H](C)[C@@H](O)c1ccccc1)OC)N(C)C(=O)[C@@H](NC(=O)[C@H](C(C)C)N(C)C(=O)OCc1ccc(NC(=O)[C@H](CCCNC(N)=O)NC(=O)[C@@H](NC(=O)[C@H](CCC(=O)O)NC(=O)CCOCCOCCOCCOCCC(=O)NCCNc2ncc(-c3cc(C)cc(F)c3)c(N3CCC(N)CC3)c2-c2nc3ccc(Cl)cc3[nH]2)C(C)C)cc1C(=O)N1CC(N)C1)C(C)C [Compound 65]
EC50 [1]: 3.4 nM
EC50 [2]: 17 nM
EC50 [3]: 0.074 nM

CC[C@H](C)[C@@H]([C@@H](CC(=O)N1CCC[C@H]1[C@H](OC)[C@@H](C)C(=O)N[C@H](C)[C@@H](O)c1ccccc1)OC)N(C)C(=O)[C@@H](NC(=O)[C@H](C(C)C)N(C)C(=O)OCc1ccc(NC(=O)[C@H](CCCNC(N)=O)NC(=O)[C@@H](NC(=O)[C@H](Cc2c[nH]c3ccccc23)NC(=O)CCOCCC(=O)NCCNc2ncc(-c3cc(C)cc(F)c3)c(N3CCC(N)CC3)c2-c2nc3ccc(Cl)cc3[nH]2)C(C)C)cc1C(=O)NCCN)C(C)C [Compound 85]
EC50 [1]: 3.6 nM
EC50 [2]: 73 nM
EC50 [3]: 0.72 nM

CC[C@H](C)[C@@H]([C@@H](CC(=O)N1CCC[C@H]1[C@H](OC)[C@@H](C)C(=O)N[C@H](C)[C@@H](O)c1ccccc1)OC)N(C)C(=O)[C@@H](NC(=O)[C@H](C(C)C)N(C)C(=O)OCc1ccc(NC(=O)[C@H](CCCNC(N)=O)NC(=O)[C@@H](NC(=O)c2cc(NCCOCCC(=O)NCCNc3ncc(-c4cc(C)cc(F)c4)c(N4CCC(N)CC4)c3-c3nc4ccc(Cl)cc4[nH]3)cc(C(=O)NCCN(CC(=O)O)CC(=O)O)c2)C(C)C)cc1C(=O)NCCN)C(C)C [Compound 58]
EC50 [1]: 14 nM
EC50 [2]: 910 nM
EC50 [3]: 0.26 nM

CC[C@H](C)[C@@H]([C@@H](CC(=O)N1CCC[C@H]1[C@H](OC)[C@@H](C)C(=O)N[C@H](C)[C@@H](O)c1ccccc1)OC)N(C)C(=O)[C@@H](NC(=O)[C@H](C(C)C)N(C)C(=O)OCc1ccc(NC(=O)[C@H](CCCNC(N)=O)NC(=O)[C@@H](NS(=O)(=O)C[C@H](C)NC(=O)CCOCCC(=O)NCCNc2ncc(-c3cc(C)cc(F)c3)c(N3CCC(N)CC3)c2-c2nc3ccc(Cl)cc3[nH]2)C(C)C)c(O[C@@H]2O[C@H](C(=O)NCC(=O)O)[C@@H](O)[C@H](O)[C@H]2O)c1)C(C)C [Compound 214]
EC50 [1]: 4 nM
EC50 [2]: 8.9 nM
EC50 [3]: 0.11 nM
